According to patent publication US20240139211A1, “METHODS AND COMPOSITIONS FOR TREATING AMYOTROPHIC LATERAL SCLEROSIS” (Amylyx Pharmaceuticals, Inc., priority 2022, published 2024):

Experiments:
hrCYP3A4 = hrCYP3A4 (Homo sapiens, UniProt P08684); assay: CYP reaction phenotyping with hrCYP3A4 (% remaining); assay type: in vitro ADME; conditions: human, 1 h, 5 µM, pH 7.4
MATE1 = target: T1, MATE1 (Homo sapiens, UniProt Q96FL8); assay: in vitro
T1 sequence (Q96FL8 1-570): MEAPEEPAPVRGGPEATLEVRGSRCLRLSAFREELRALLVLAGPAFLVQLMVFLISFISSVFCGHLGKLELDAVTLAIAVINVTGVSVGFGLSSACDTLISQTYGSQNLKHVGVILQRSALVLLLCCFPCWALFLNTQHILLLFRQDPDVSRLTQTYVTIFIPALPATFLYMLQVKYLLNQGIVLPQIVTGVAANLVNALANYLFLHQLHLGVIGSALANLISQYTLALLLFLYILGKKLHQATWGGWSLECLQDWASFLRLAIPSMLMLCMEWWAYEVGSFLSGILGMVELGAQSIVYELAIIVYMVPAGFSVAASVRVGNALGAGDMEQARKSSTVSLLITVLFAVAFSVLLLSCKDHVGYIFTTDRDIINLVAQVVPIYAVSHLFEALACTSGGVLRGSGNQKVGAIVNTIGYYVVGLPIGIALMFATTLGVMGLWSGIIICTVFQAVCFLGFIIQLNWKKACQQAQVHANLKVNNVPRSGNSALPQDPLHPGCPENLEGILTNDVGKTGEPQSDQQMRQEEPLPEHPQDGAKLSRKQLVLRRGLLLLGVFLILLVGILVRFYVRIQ

[1] = Rat drug-drug interaction study TDF + AMX0035: urine recovery; assay type: in vivo; conditions: male, Sprague-Dawley, rat, in vivo
Method: Total urine recovery data for Tenofovir, TDF, and PB was calculated for the 24 hour collection period on Days 1 and 5. […] The reported urine recovery data included amount recovered (ng) and percent recovered (%) for […]. Individual and mean Tenofovir, TDF, and PB urine recovery data were presented with SD, reported to three significant figures, and CV %, reported to one decimal place.

[2] = Relevant plasma concentrations for in vitro transporter assessment; assay type: in vivo
[3] = system: CYPs in human liver microsomes (HLM); assay: CYP reaction phenotyping in HLM with chemical inhibitors (% remaining)
P-gp and BCRP = P-gp and BCRP substrate assessment in C2BBe1 monolayers; conditions: Caco-2
Method: The P-gp and BCRP substrate assessment was conducted in C2BBe1 cell monolayers. […] LY was co-dosed with each dosing solution at a nominal concentration of 200 μM.
The cell culture medium was aspirated, and the cell monolayers were rinsed once with HBSSg_7.4. […] For receiver samples, aliquots (300 μL) were taken at pre-selected time points. […] For donor samples, aliquots (50 μL) were taken at pre-selected time points without replacement.

[4] = Rat drug-drug interaction study TDF + AMX0035: plasma pharmacokinetics; conditions: Day 5, AMX0035 + TDF 840/25 mg/kg oral, male Sprague Dawley rats; individual animals; BLQ = <50 ng/mL

hrCYP3A4, sequence (P08684 whole entry): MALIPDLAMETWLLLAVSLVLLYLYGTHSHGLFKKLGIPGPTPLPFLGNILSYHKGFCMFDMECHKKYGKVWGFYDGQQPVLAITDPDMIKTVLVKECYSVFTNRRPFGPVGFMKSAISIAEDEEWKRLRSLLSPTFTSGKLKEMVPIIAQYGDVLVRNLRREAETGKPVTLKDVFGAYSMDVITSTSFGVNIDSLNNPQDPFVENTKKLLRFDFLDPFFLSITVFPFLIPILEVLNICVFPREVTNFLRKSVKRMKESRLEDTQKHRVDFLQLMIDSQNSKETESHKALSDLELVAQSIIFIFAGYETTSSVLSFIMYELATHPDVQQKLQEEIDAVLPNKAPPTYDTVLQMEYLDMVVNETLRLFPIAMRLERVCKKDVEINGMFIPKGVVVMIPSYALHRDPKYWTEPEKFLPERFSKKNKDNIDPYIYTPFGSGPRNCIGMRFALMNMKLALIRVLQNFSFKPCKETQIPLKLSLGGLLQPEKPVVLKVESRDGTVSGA

SMILES: O=C(O)CCCc1ccccc1 [PB, sodium phenylbutyrate]
- % remaining after 60 minutes (hrCYP3A4): greater than 90%
- potency estimated from few doses (MATE1): < 250 µM
- Urine concentrations [1]: Urine concentrations for PB analysis in all animals on Day 1, for TUDCA analysis in all animals on Days 1 and 5, and for TDF analysis in two animals on Day 1 and one animal on Day 5 were BLQ (<20 mg/mL) so no recovery data was calculated.
- Plasma Cmax (total [I]1) ([2]; component of AMX0035, highest oral dose TUDCA 1000 mg, PB 3000 mg): 826 µM
- Unbound [I]m, max ([2]; projected unbound Iin, max): 326 µM
- Unbound Cmax (Unbound [I]1) ([2]; projected, from total Cmax and plasma protein binding): 148 µM
- Metabolism by the major CYPs in HLM [3]: neither PB nor TUDCA is metabolized
- % remaining of TA in HLM ([3]; +NADPH +ketoconazole (CYP3A), 60 min): 90.6%
- % remaining of TA in HLM ([3]; Maximum Metabolism-1: +NADPH −inhibitor, pre-incubated, 10 min): 118%
- % remaining of TA in HLM ([3]; Maximum Metabolism-1: +NADPH −inhibitor, pre-incubated, 20 min): 113%
- % remaining of TA in HLM ([3]; Maximum Metabolism-1: +NADPH −inhibitor, pre-incubated, 30 min): 110%
- % remaining of TA in HLM ([3]; Negative Control-1: −NADPH −inhibitor, pre-incubated, 5 min): 109%
- % remaining of TA in HLM ([3]; Negative Control-1: −NADPH −inhibitor, pre-incubated, 10 min): 114%
- % remaining of TA in HLM ([3]; Negative Control-1: −NADPH −inhibitor, pre-incubated, 20 min): 113%
- % remaining of TA in HLM ([3]; Negative Control-1: −NADPH −inhibitor, pre-incubated, 30 min): 112%
- % remaining of TA in HLM ([3]; Negative Control-1: −NADPH −inhibitor, pre-incubated, 60 min): 115%
- P-gp or BCRP substrate (P-gp and BCRP): neither TUDCA nor PB is P-gp or BCRP substrate
- Plasma Concentration of analyte at 8.0 hr [4]: 102 ng/mL
